MIC data for four molecules are collected here from ChEMBL document CHEMBL3399990, “Synthesis of mycothiol conjugate analogues and evaluation of their antimycobacterial activity” (Bioorg Med Chem Lett, 2015).

Values after ≈ are worked out from the molar mass of the structure shown.

The test system of this assay is Mycobacterium tuberculosis. Kind of assay: Bacteriostatic activity against Mycobacterium bovis BCG after 7 days by Alamar Blue assay. The class given is functional. The following applies: variant bovis BCG, 168 h. (In general: Resazurin is reduced to fluorescent resorufin, in cell work by metabolically active cells.)
The molecule `CC(C)(C)OC(=O)N[C@@H](CSC(Cl)=C(Cl)Cl)C(=O)N[C@@H]1[C@@H](O)[C@H](O)[C@@H](CO)O[C@@H]1SC1CCCCC1` had an MIC of 500 µM (≈ 305 µg/mL).

The molecule `N[C@@H](CSC(Cl)=C(Cl)Cl)C(=O)N[C@@H]1[C@@H](O)[C@H](O)[C@@H](CO)O[C@@H]1SC1CCCCC1` gave an MIC of 62.5 µM (≈ 31.9 µg/mL).

`CC(C)(C)OC(=O)N[C@@H](CSC(Cl)=C(Cl)Cl)C(=O)N[C@@H]1[C@@H](O)[C@H](O)[C@@H](CO)O[C@H]1SC1CCCCC1`: the MIC was at least 1000 µM.

In turn, `N[C@@H](CSC(Cl)=C(Cl)Cl)C(=O)N[C@@H]1[C@@H](O)[C@H](O)[C@@H](CO)O[C@H]1SC1CCCCC1` gave a minimum inhibitory concentration (MIC) of 125 µM (≈ 63.7 µg/mL).

As usually defined, the MIC is the lowest concentration that inhibits growth of the organism. A low value points to greater potency.
